We go through four molecules from patent US20220132857A1, “Disinfecting Composition and Related Methods” (priority 2020, published 2022).

In assay [1] the test system is Pseudomonas Aeruginosa. The note with it: within 5 minutes of contact time; cited from earlier work.
For assay [2], the system named is Staphylococcus Aureus. The note with it: within 5 minutes of contact time; cited from earlier work.
In assay [3] the test system is residual ATP (ATP-containing contamination including bacteria). Briefly: ATP bioluminescence disinfection efficacy on polyester fabric contaminated with collected water. The note with it: 5 ml dropwise, after 5 minutes, before treatment Area 1: 243, Area 2: 291.
Source text: Bioluminescence is a practical and simple method used to quickly assess the bio-contamination of surfaces. The method has been developed based on the biochemical adenosine triphosphate (“ATP”), which is the energy molecule of all the living organisms, luciferin/luciferase, and oxygen. The reaction results in a light-emitting decay which can be detected and related to the amount of ATP.
The luminometer (in conjunction with ATP swabs) uses bioluminescence to detect residual ATP as an indicator of surface cleanliness. The presence of ATP on a surface indicates incomplete cleaning and the presence of ATP-containing contamination including bacteria.
Test results are presented as Relative Light Units (“RLU”). RLU is the unit of measurement used in bioluminescence. When a test swab is activated, a bioluminescent reaction occurs, generating light output. Luminometers measure and quantify that light with an RLU output. […]
The relationship between the amount of ATP on the sample and the RLU result reading on the luminometer is directly proportional to the amount of ATP collected from the sample. A high RLU reading indicates a large amount of ATP at the test location. […]
Cleaning properly results in less ATP at the location. Less ATP results in less light output during the bioluminescent reaction and consequently, a lower RLU reading. […]
Assay [4] has the same test system. The note with it: granite tile, 3 ml soaked through paper towel, after 5 minutes; before treatment Area 1: 1057, Area 2: 998.
Source text: Therefore, the surfaces to be evaluated had to be thoroughly cleaned and tested for contamination prior to commencing the test.
Test results are presented as Relative Light Units (“RLU”). RLU is the unit of measurement used in bioluminescence. When a test swab is activated, a bioluminescent reaction occurs, generating light output. Luminometers measure and quantify that light with an RLU output.
A high RLU reading indicates a large amount of ATP at the test location. This in turn indicates improper cleaning and the presence of contaminants.
Cleaning properly results in less ATP at the location. Less ATP results in less light output during the bioluminescent reaction and consequently, a lower RLU reading.
A granite floor tile was selected and thoroughly disinfected with hot water and a cocktail of disinfectants. It was then tested for ATP until the readings consistently indicated RLU of 0-2 which represented a surface free of ATP within the margins of error.
A sample of seemingly contaminated water was collected from a pond and left stagnant for solid settlement for 3 days.
The granite tile was covered with a paper towel and the water was added to the towel in a dropwise manner until it was completely soaked. After a few hours, soaking was repeated, and the specimen was left to dry overnight. […]

SMILES strings stand for the structures. Like-named read-outs stand apart in the source and are kept apart here.

As to `OO` [6 weight percent hydrogen peroxide solution], in assay [1], the “reduction against Pseudomonas Aeruginosa” value is under 2 Log. For the same molecule, the “reduction against Staphylococcus Aureus” value in assay [2] is about 3 Log.

For the molecule `CC(C)O` [commercial 70% Iso-Propyl Alcohol, Iso-Propyl Alcohol], in assay [3], the “ATP reading after treatment” value came to 22 RLU.

With `OO` [0.6 wt. % hydrogen peroxide solution, hydrogen peroxide], the “reduction against Pseudomonas Aeruginosa” value in assay [1] is under 1 Log. For the same molecule, in assay [2], the “reduction against Staphylococcus Aureus” value was about 1 Log. On to `OO` [hydrogen peroxide with no other additive, hydrogen peroxide], for which the “ATP reading after treatment” value in assay [4] is recorded as 82 RLU.
